Numbering of substitutions follows the chain as printed. In names and notes the source's numbering stands.
Assays:
[1] = biological target: T1, L. innocua LIN2189 variant E157A (SEQ ID NO:28) (Listeria innocua, UniProt Q929T5, E157A); type: binding; conditions: FAM
T1 construct: listing organism Escherichia coli is only the host

[2] = biological target: C. tepidium CTR107 variant, highest affinity FAM-binding aptamer from phage display library (Chlorobaculum tepidum, UniProt Q8KFZ1); experiment: Fluorescence-binding assay, Kd by nonlinear regression fit to the Hill equation
[3] = biological target: T2, LIN2189 WT (L. innocua Gyrl-like protein, wild type, SEQ ID NO:6) (Listeria innocua, UniProt Q929T5); experiment: Fluorescence binding assay (enhancement/quenching of dye fluorescence); conditions: 1 μM FAM, saturating protein
T2 construct: recombinant, purified
T2 sequence (Q929T5 with tags, fused parts or gaps): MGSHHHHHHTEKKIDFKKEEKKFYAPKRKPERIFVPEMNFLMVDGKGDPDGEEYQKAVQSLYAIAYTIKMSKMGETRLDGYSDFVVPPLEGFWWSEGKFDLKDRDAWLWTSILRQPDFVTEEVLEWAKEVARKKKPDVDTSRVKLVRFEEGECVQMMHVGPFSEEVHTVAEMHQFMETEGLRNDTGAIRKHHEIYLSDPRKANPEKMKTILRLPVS
Description: (§1) Fluorescence Binding Assay
CTR107 when added at 10 μM induced a 10-fold increase in DFHBI fluorescence (FIG. 6A).
Malachite Green fluoresces in the far-red regions when stimulated by binding aptamers, therefore we monitored its fluorescence emission at 665-720 nm after exciting at 635 nm.
Thioflavin T is a benzothiazole dye that has also been used in many fluorescence applications. […] The Corn aptamer is able to bind to two Thioflavin T molecules at a homodimer interface formed by G-quadruplexes. We tested whether Gyrl-like proteins could function as fluorescence enhancement aptamers of Thioflavin T. Thioflavin T has excitation and emission maxima of […], respectively. We probed the fluorescence enhancing properties of SAV2435, CTR107 and LIN2189 variants on Thioflavin T (FIG. 8). […] All other variants display either a small 4-6 fold increase or no increase in Thioflavin T fluorescence.

[4] = biological target: C. tepidium CTR107 variant, weakest FAM-binding aptamer from phage display library (Chlorobaculum tepidum, UniProt Q8KFZ1); experiment: Fluorescence-binding assay, Kd by nonlinear regression fit to the Hill equation
[5] = biological target: T3, C. tepidium CTR107 variant Y106W (SEQ ID NO:20) (Chlorobaculum tepidum, UniProt Q8KFZ1, Y106W); experiment: biochemical; type: binding
T3 sequence (Q8KFZ1 with tags, fused parts or gaps Y106W): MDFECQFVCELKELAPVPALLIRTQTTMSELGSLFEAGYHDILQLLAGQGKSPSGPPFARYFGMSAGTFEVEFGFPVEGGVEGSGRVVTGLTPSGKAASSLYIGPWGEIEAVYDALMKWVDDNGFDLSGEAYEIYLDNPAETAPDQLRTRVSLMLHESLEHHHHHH

FAM antibody = experiment: Fluorescence-binding assay, Kd by nonlinear regression fit to the Hill equation
From the text: as §1

[6] = biological target: T4, SAV2435 WT (S. aureus Gyrl-like protein, wild type, SEQ ID NO:2) (Staphylococcus aureus, UniProt A0A0H3K0Y5); type: binding
T4 construct: listing organism Escherichia coli is only the host

[7] = biological target: T5, C. tepidium CTR107 variant E133Q (SEQ ID NO:22) (Chlorobaculum tepidum, UniProt Q8KFZ1, E133Q); type: binding
T5 sequence (Q8KFZ1 with tags, fused parts or gaps E133Q): T3 sequence (Q8KFZ1 with tags, fused parts or gaps Y106W) with W106Y, E133Q

[8] = biological target: C. tepidium CTR107 variant E36R (SEQ ID NO:18) (Chlorobaculum tepidum, UniProt Q8KFZ1, E36R); type: binding; conditions: FAM
[9] = biological target: T6, CTR107 WT (C. tepidium Gyrl-like protein, wild type, SEQ ID NO:4) (Chlorobaculum tepidum, UniProt Q8KFZ1); experiment: biochemical; type: binding
T6 construct: begins […]

[10] = biological target: S. aureus SAV2435 variant V105W (SEQ ID NO:10) (Staphylococcus aureus, UniProt A0A0H3K0Y5, V105W); type: binding; conditions: 500 nM Acridine Orange
[11] = biological target: S. aureus SAV2435 variant E135Q (SEQ ID NO:14) (Staphylococcus aureus, UniProt A0A0H3K0Y5, E135Q/V105W); type: binding; conditions: 500 nM Acridine Orange
[12] = biological target: S. aureus SAV2435 variant N27W (SEQ ID NO:8) (Staphylococcus aureus, UniProt A0A0H3K0Y5); type: binding; conditions: Acridine Orange
[13] = biological target: S. aureus SAV2435 variant P106W (SEQ ID NO:12) (Staphylococcus aureus, UniProt A0A0H3K0Y5, P106W); type: binding; conditions: 500 nM Acridine Orange
[14] = biological target: S. aureus SAV2435 variant Y137W (SEQ ID NO:16) (Staphylococcus aureus, UniProt A0A0H3K0Y5, V105W/Y137W); type: binding; conditions: Acridine Orange
[15] = tested on: E. coli expressing SAV2435 WT; experiment: In vivo drug-binding aptamer screening (ampicillin resistance); conditions: E. coli growth, OD600, 24 hrs
[16] = tested on: bacterial growth; ampicillin pre-incubated with LIN2189 (LIN2189 DUB); experiment: Ex vivo drug-metabolizing aptamer screening (bacterial growth in ampicillin pre-incubated with protein)
[17] = tested on: E. coli expressing CTR107 WT; experiment: In vivo drug-binding aptamer screening (ampicillin resistance); conditions: E. coli growth, OD600, 24 hrs
[18] = tested on: E. coli expressing LIN2189 DUB; experiment: as above; conditions: E. coli growth, OD600, 24 hrs
[19] = UV fluorescence quenching of Daunorubicin; conditions: 5 μM daunorubicin; saturating protein

T6 sequence (Q8KFZ1 entry or part of it): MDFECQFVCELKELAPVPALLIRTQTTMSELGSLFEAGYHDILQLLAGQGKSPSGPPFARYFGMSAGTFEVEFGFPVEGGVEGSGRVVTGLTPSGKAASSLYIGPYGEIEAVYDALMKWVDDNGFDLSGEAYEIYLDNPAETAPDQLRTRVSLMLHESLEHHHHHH
Sequence of C. tepidium CTR107 variant E36R (SEQ ID NO:18) (Q8KFZ1 entry or part of it E36R): as the sequence (Q8KFZ1 entry or part of it) above, with E36R counted along it
T1 sequence (Q929T5 entry or part of it E157A): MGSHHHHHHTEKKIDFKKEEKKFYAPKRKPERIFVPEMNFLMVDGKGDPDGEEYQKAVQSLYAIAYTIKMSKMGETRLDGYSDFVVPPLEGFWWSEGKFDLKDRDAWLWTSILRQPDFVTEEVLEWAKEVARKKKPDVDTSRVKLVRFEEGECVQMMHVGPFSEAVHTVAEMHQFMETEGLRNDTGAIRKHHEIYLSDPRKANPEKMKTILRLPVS

5(6)-Carboxyfluorescein [FAM]
changes in fluorescence quenching compared to LIN2189 WT [1]: no changes | affinity relative to FAM antibody [2]: 11 fold | decrease in fluorescence [3]: 2 fold | Kd [4]: 3 nM | fluorescence quenching ([5]; FAM): loss of quenching properties | Kd (FAM antibody): 8 nM | effect on fluorescence ([6]; 1 μM FAM, saturating protein): no effect | fluorescence quenching ([7]; FAM): loss of quenching properties | fluorescence quenching [8]: loss of quenching properties | decrease in fluorescence ([9]; 1 μM FAM, saturating protein): 6 fold

CN(C)c1ccc2cc3ccc(N(C)C)cc3nc2c1 [Acridine Orange]
increase in fluorescence intensity [10]: doubled | increase in fluorescence intensity [11]: doubled | quenching effect on fluorescence ([5]; Acridine Orange): 2-3 fold | quenching effect on fluorescence ([6]; Acridine Orange): 2-3 fold | increase in fluorescence intensity ([7]; 500 nM Acridine Orange): doubled | increase in fluorescence intensity ([9]; 500 nM Acridine Orange): doubled | quenching effect on fluorescence [12]: 2-3 fold | increase in fluorescence intensity [13]: doubled | quenching effect on fluorescence [14]: 2-3 fold

CC1(C)S[C@@H]2[C@H](NC(=O)[C@H](N)c3ccccc3)C(=O)N2[C@H]1C(=O)O [Ampicillin]
susceptibility to ampicillin [15]: susceptible | resistance up to ampicillin concentration [16]: up to 500 μg/ml | partial resistance up to ampicillin concentration [17]: up to 100 μg/ml | highest resistance at ampicillin concentration [18]: 100 µg/mL

B1: CTR107 Y106W: CTR107 variant aptamer, SEQ ID NO:20 (protein, listed as Escherichia coli)
chain: T3 sequence (Q8KFZ1 with tags, fused parts or gaps Y106W)
UV fluorescence of Daunorubicin with protein [19]: complete shut off of fluorescence

Source: patent publication US12104201B2, “Engineered gyri-like mutein aptamers, and related methods” (CROSSLIFE TECHNOLOGIES INC., priority 2019, dated 2024)
